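Results reflect a 48-hour exposure of cells in 96-well plates to compound at five concentrations. Abbreviation: GI50, concentration required for 50% inhibition of growth. TGI is the concentration that stops growth completely.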
What was measured:
Assay in all cases: DTP human tumour cell line panel, 48 h
SNB-19 CNS = system: SNB-19 CNS
ACHN renal = system: ACHN renal
PC-3 prostate = system: PC-3 prostate
CCRF-CEM leukemia = system: CCRF-CEM leukemia
SNB-75 CNS = system: SNB-75 CNS
SF-539 CNS = system: SF-539 CNS
SW-620 colon = system: SW-620 colon
A498 renal = system: A498 renal
MCF7 breast = system: MCF7 breast

Row | Compound | TGI (SNB-19 CNS) [µM] | TGI (ACHN renal) [µM] | TGI (PC-3 prostate) [µM] | TGI (CCRF-CEM leukemia) [µM] | TGI (SNB-75 CNS) [µM] | TGI (SF-539 CNS) [µM] | TGI (SW-620 colon) [µM] | TGI (A498 renal) [µM] | TGI (MCF7 breast) [µM] | GI50 (CCRF-CEM leukemia) [µM]
1 | Oc1[nH]c2ccccc2c1N=NC(=S)Nc1ccc(Cl)cc1 | > 100 | > 100 | > 100 | > 100 | > 100 | 82.3 | > 100 | 63 | > 100 | –
2 | CN(C)CC1CCC(CN(C)C)C1=O (stereo not given) | > 100 | 11.1 | 4.58 | > 100 | 37.2 | 33.3 | 10.4 | > 58.9 | 1.8 | 0.319
3 | COc1ccc(N(C(=O)Nc2ccc(Cl)c(Cl)c2)C2c3cccn3C(=O)N2c2ccc(Cl)c(Cl)c2)cc1 (stereo not given) | > 100 | > 100 | > 100 | > 100 | – | > 100 | > 100 | > 100 | > 100 | –
4 | O=C1NCN(c2ccccc2)C12CCN(CCCN1CCN(CCOC(c3ccc(F)cc3)c3ccc(F)cc3)CC1)CC2 | 6.57 | 3.85 | 10.9 | > 100 | – | 3.26 | 7.87 | 3.35 | 3.99 | –
5 | COC(=O)/C(C#N)=C(/NCCN)Nc1ccccc1 | > 100 | > 100 | > 100 | – | > 100 | > 100 | > 100 | > 100 | > 100 | –
6 | COc1cc(NC(C)=O)ccc1C(=O)NN1C(=O)/C(=C/c2ccco2)N=C1c1ccccc1 | > 50 | > 50 | > 50 | 31.1 | > 50 | > 50 | > 50 | > 50 | > 50 | –
7 | CC(=O)OC1CCC2C3CCc4c(C)ccc(OS(=O)(=O)c5ccccc5)c4C3CCC12C (stereo not given) | > 100 | > 100 | > 100 | > 100 | – | – | > 100 | > 100 | > 100 | –
8 | CCC(C(=O)C(=O)OC)P1(=O)OC(C)(C)CN1C(C)(C)C (stereo not given) | > 100 | > 100 | > 100 | – | > 100 | > 100 | > 100 | 53.1 | > 100 | –
9 | C#CCN(Cc1ccc2nc(OC)c(OC)nc2c1)c1cc(OC)c(OC)c(OC)c1 | > 80.9 | > 100 | > 91.5 | > 100 | > 100 | 43.6 | > 100 | > 84.5 | > 66 | –
10 | Cc1cnc2c(c1)C(=O)C1=C(C2=O)C2OC(=O)CC2OC1(C)C (stereo not given) | 2.61 | 0.39 | 0.812 | 0.151 | 4.1 | 0.575 | 0.768 | 3.75 | 0.363 | –
11 | O=C(C(Cl)=C(N1CCOCC1)N1CCOCC1)C(Cl)Cl | > 100 | > 100 | > 100 | > 100 | – | > 100 | > 100 | > 100 | > 100 | –
12 | COC(=O)[C@H](Cc1ccccc1)NC(=O)CCCCCCC(=O)NO | > 100 | > 100 | 38.2 | > 100 | – | > 100 | > 100 | – | > 100 | –

Reference: PubChem BioAssay (NCI)
